Reference: patent publication US11044932B1, “Composition of (D)-beta-hydroxybutyric acid, (D)-beta-hydroxyvaleric acid, and (D)-1,3 butanediol” (priority 2020, dated 2021)

Key:
[1] = administration of D-BHB, D-BHV and D-1,3BD in various ratios to human subjects at rest: circulating ketones and ketotic efficiency; format: in vivo; details: for Max change in mMol/L (increase in circulating ketone level): 10 g dose, three human subjects at rest; for 1 hour ketotic efficiency: 1 hour post-administration; for 1 hour ketotic efficiency / 2 hours ketotic efficiency: subject at rest; for 2 hours ketotic efficiency: 2 hours post-administration; for prolonged rise of blood ketone levels / sustained ketonemia: based on measured plasma levels of FIG. 1, subject at rest; for ketotic efficiency, rank in words: both 1 and 2 hours post-administration
Description: The administration of examples presented herein result in an increase in the circulating level of ketones in a human subject at rest that is greater than would result from the administration of (D)-β-hydroxybutyrate or (D)-1,3 butanediol alone over a duration of, for example, 120 minutes. Preferred examples include administration of a combination of D-BHB, D-BHV, and D-1,3BD in a therapeutically effective amount such that the rate change of circulating ketones in the blood of a human subject at rest is faster than the administration of an equivalent amount of either D-BHB or D-1,3BD administered alone. In one example, this includes the administration of a composition including a mixture of 43.2%% D-BHB, 1.8% D-BHV and 55% D-1,3BD. In another example, this includes the administration of a composition including a mixture of 52.8% DBHB, 2.2% D-BHV, and 45% D-1,3BD. In another example, this includes the administration of at composition including a mixture of 62.4% D-BHB, 2.6% D-BHV, and 35% D-1,3BD.
Examples include using a composition including D-BHB, D-BHV, and D-1,3BD in a subject at rest. The ketotic efficiency represents the net elevation of circulating ketones a ketone supplement affects over time in an individual. Ketotic efficiency may be represented as:
[formula] where mMol/L is the concentration of circulating 3-hydroxybutyrate in the blood, g is the total dose of the combined D-BHB, D-BHV, and D-1,3,BD in grams, kg is the mass of the individual in kilograms, and t is an increment of time in minutes.
While this example pertains to a fasted subject at rest, the relative utility of blended vs pure constituents has also been observed in fed and active subjects.
As illustrated by the examples of FIG. 1, these exemplary compositions can advantageously elevate circulating ketones by approximately two times greater than other known compositions. Such a composition can sustain ketonemia for longer than either D-BHB or D-1,3BD can when ingested alone by a subject of a given weight as shown by the 100% line (i.e., contains D-BHB, but not D-1,3BD) and the 0% line (i.e., contains only D-1,3BD, but not D-BHB).
As shown in the following table, the increase in circulating ketone level with a 10 g dose in three human subjects at rest was maximal at between 45-55% D-BHB in the tested compositions. […]

[2] = similar to lemon juice; cited from earlier work

What does the source list for `CC(O)CCO` (centres unmarked) [0%, (D)-1,3 butanediol]?
Max change in mMol/L (increase in circulating ketone level) [1]: 0.8 mmol/L; 1 hour ketotic efficiency [1]: 266 kg·mmol·min/g/L; 2 hours ketotic efficiency [1]: 462 kg·mmol·min/g/L; prolonged rise of blood ketone levels / sustained ketonemia [1]: does not cause a prolonged rise of blood ketone levels; ketotic efficiency, rank in words [1]: lowest efficiency

Which results are given for `CC(O)CC(=O)O` (stereo not drawn) [100%, (D)-β-hydroxybutyric acid]?
Max change in mMol/L (increase in circulating ketone level) [1]: 0.9 mmol/L; 1 hour ketotic efficiency [1]: 335 kg·mmol·min/g/L; 2 hours ketotic efficiency [1]: 566 kg·mmol·min/g/L; prolonged rise of blood ketone levels / sustained ketonemia [1]: A similar result; ketotic efficiency, rank in words [1]: lowest efficiency; pH [2]: 2.5
